Measurements reported in patent US6599514B1, “Antifungal composition” (Syngenta Limited, priority 1997, dated 2003).

Columns and labels:
Assay type in all cases: cell-based
Penicillium chrysogenum = experiment: Antifungal microplate growth inhibition assay (MIC, growth % of control); details: for MIC / concentration required alone to give strong growth inhibition: medium B (½ PDB + 1 mM CaCl2 + 50 mM KCl), agent used alone; for Fungal growth as compared to the control: individual application
Procedure: (§1) Unless otherwise stated the incubation was carried out at 24° C. for 48 hours. Percentages of fungal growth were estimated by microscopic examination of the microplates after the incubation period. The control microcultures were used as a reference in order to estimate fungal growth inhibition.
(§2) The antifungal potency of the purified proteins was assessed on different food spoilage fungi using the assay described above. Growth of fungi, collection and harvest of fungal spores were done as previously described (Broekaert et al., 1990, FEMS Microbiol. Lett., 69: 55-60).
(§3) The percentage growth inhibition was estimated by microscopic inspection of the microtitre plates, taking the microculture control with no antifungal protein added as a reference for normal fungal growth.
(§4) Following inoculation the plates were incubated at 24° C. for 48 hours.
(§5) Chitinase-I and β-1,3-glucanase were extracted and purified from tobacco according to the method published by Sela-Buurlage, M. B., et al., in 1993 (Plant Physiol. 101, 857-863). The purified enzymes were mixed in a 1:1 ratio and then tested for antifungal activity against the food spoilage fungal strains Penicillium roquefortii and P. chrysogenum. The antifungal assays were carried out as described above. Assessment of growth inhibition was carried out by microscopic examination after 48 and 96 hours incubation at 24° C.
(§6) In Colby's formula, E1=X1Y1/100, X1 and Y1 represent growth as a percentage of control with compound A (dosage p) and compound B (dosage q), respectively. E1 is the i5 expected growth as a percentage of control with the mixture A and B (dosage p+q). […] Comparison of the observed and expected percent inhibition responses (Eobs/Eexp) indicates synergism (Eobs/Eexp>1) or antagonism (Eobs/Eexp<1).

Penicillium roquefortii = experiment: as above; details: for Fungal growth as compared to the control: individual application; for MIC / concentration required alone to give strong growth inhibition: medium B (½ PDB + 1 mM CaCl2 + 50 mM KCl), agent used alone
Procedure: as §1, §2, §3, §4, §5, §6

Penicillium commune = experiment: Antifungal microplate growth inhibition assay (MIC); details: medium B (½ PDB + 1 mM CaCl2 + 50 mM KCl), 48 h, 24° C., agent used alone
Procedure: Unless otherwise stated the incubation was carried out at 24° C. for 48 hours. Percentages of fungal growth were estimated by microscopic examination of the microplates after the incubation period. The control microcultures were used as a reference in order to estimate fungal growth inhibition. […] The antifungal potency of the purified proteins was assessed on different food spoilage fungi using the assay described above. Growth of fungi, collection and harvest of fungal spores were done as previously described (Broekaert et al., 1990, FEMS Microbiol. Lett., 69: 55-60). […] The percentage growth inhibition was estimated by microscopic inspection of the microtitre plates, taking the microculture control with no antifungal protein added as a reference for normal fungal growth.

Fusarium culmorum = experiment: as above; details: 48 h, 24° C.; for MIC / concentration required alone to give strong growth inhibition: medium B (½ PDB + 1 mM CaCl2 + 50 mM KCl), agent used alone
Procedure: as §1, §2, §3
(§7) The Ib-AMP1 pure protein was added to the test solution and mixed with the fungal spore suspension as described above. Following inoculation the plates were incubated at 24° C. for 48 hours. […] A summary of the results obtained is shown on table 14.

Alternaria sp. = experiment: as above; details: 48 h, 24° C.; for MIC / concentration required alone to give strong growth inhibition: medium B (½ PDB + 1 mM CaCl2 + 50 mM KCl), agent used alone
Procedure: as §1, §2, §3, §4

Cladosporium sp. = experiment: as above; details: 48 h, 24° C.; for MIC / concentration required alone to give strong growth inhibition: medium B (½ PDB + 1 mM CaCl2 + 50 mM KCl), agent used alone
Procedure: as §1, §2, §3, §4

Trichoderma harzianum = experiment: as above; details: 48 h, 24° C.; for MIC / concentration required alone to give strong growth inhibition: medium B (½ PDB + 1 mM CaCl2 + 50 mM KCl), agent used alone
Procedure: as §1, §2, §3, §4

Mucor plumbeus = experiment: as above; details: medium B (½ PDB + 1 mM CaCl2 + 50 mM KCl), 48 h, 24° C., agent used alone
[1] = test system: range of food spoilage strains; experiment: Antifungal microplate assay, statements on the whole range of strains; details: 200 ppm (maximum concentration tested), medium B, 48 hours, 24° C.
Procedure: as §1
The following fungal strains were used: Fusarium culmorum, Penicillium chrysogenum, Penicillium roquefortii, Penicillium commune, Penicillium nalgiovense, Mucor plumbeus, Scopulariopsis brevicaulis, Aspergillus versicolor, Alternaria sp., Cladosporium sp. and Trichoderma harzianum.
as §3, §7

[2] = medium B, 96 hours, 24° C., used alone
[3] = medium A (½ PDB), protein alone
[4] = medium A (½ PDB), 48 h, 24° C., protein alone

## C/C=C/C=C/C(=O)[O-].[K+] [K sorbate, potassium sorbate]
Penicillium chrysogenum; K sorbate alone, 96 hours incubation, medium B, strain not told apart from P. roquefortii
  Fungal growth inhibition, % of the controls: 10-20%
Penicillium chrysogenum; 48 h, 24° C.
  MIC / concentration required alone to give strong growth inhibition: 1000 ppm
Penicillium chrysogenum; [2]
  Concentration required alone to give strong growth inhibition: >2,000 ppm
Penicillium roquefortii; K sorbate alone, 96 hours incubation, medium B, strain not told apart from P. chrysogenum
  Fungal growth inhibition, % of the controls: 10-20%
Penicillium roquefortii; 500 ppm, medium B
  Fungal growth as compared to the control: 90%
Penicillium roquefortii; 48 h, 24° C.
  MIC / concentration required alone to give strong growth inhibition: 1500 ppm
Penicillium roquefortii; [2]
  Concentration required alone to give strong growth inhibition: >2,000 ppm

## O=C([O-])c1ccccc1.[Na+] [Na benzoate, sodium benzoate]
Penicillium chrysogenum; 500 ppm, medium B
  Fungal growth as compared to the control: 99%
Penicillium chrysogenum; 48 h, 24° C.
  MIC / concentration required alone to give strong growth inhibition: 6000 ppm

## O=C([O-])CN(CCN(CC(=O)[O-])CC(=O)[O-])CC(=O)[O-].[Ca+2].[Na+].[Na+] [CaNa2EDTA, calcium disodium EDTA]
Penicillium chrysogenum; 48 h, 24° C.
  MIC / concentration required alone to give strong growth inhibition: >150 ppm
Penicillium roquefortii; 48 h, 24° C.
  MIC / concentration required alone to give strong growth inhibition: >150 ppm

## O=C(O)CN(CCN(CC(=O)O)CC(=O)O)CC(=O)O [EDTA]
Penicillium chrysogenum; 48 h, 24° C.
  MIC / concentration required alone to give strong growth inhibition: 200 ppm
Penicillium roquefortii; 48 h, 24° C.
  MIC / concentration required alone to give strong growth inhibition: >200 ppm
Penicillium commune
  MIC / concentration required alone to give strong growth inhibition: >200 ppm

## COc1ccc(O)c(C(C)(C)C)c1 [BHA, butylated hydroxyanisole]
Fusarium culmorum
  MIC / concentration required alone to give strong growth inhibition: >200 ppm
Penicillium chrysogenum; 50 ppm, medium B
  Fungal growth as compared to the control: 99%
Penicillium chrysogenum; 48 h, 24° C.
  MIC / concentration required alone to give strong growth inhibition: >200 ppm
Penicillium roquefortii; 48 h, 24° C.
  MIC / concentration required alone to give strong growth inhibition: >200 ppm
Alternaria sp.
  MIC / concentration required alone to give strong growth inhibition: >200 ppm
Cladosporium sp.
  MIC / concentration required alone to give strong growth inhibition: >200 ppm
Trichoderma harzianum
  MIC / concentration required alone to give strong growth inhibition: >200 ppm
Mucor plumbeus
  MIC / concentration required alone to give strong growth inhibition: >200 ppm
[1]
  Antifungal activity of BHA added alone: no antifungal activity was observed

## CC(O)C(=O)O (stereo not shown) [Lactic acid, lactic acid]
Penicillium chrysogenum; 2500 ppm, medium B
  Fungal growth as compared to the control: 90%
Penicillium chrysogenum; 48 h, 24° C.
  MIC / concentration required alone to give strong growth inhibition: 20,000 ppm

## O=C([O-])CN(CCN(CC(=O)O)CC(=O)O)CC(=O)[O-].[Na+].[Na+] [Na2H2EDTA, disodium dihydrogen EDTA]
Penicillium chrysogenum; 75 ppm, medium B
  Fungal growth as compared to the control: 90%
Penicillium chrysogenum; 48 h, 24° C.
  MIC / concentration required alone to give strong growth inhibition: >150 ppm

## Rs-AFP2: purified antifungal protein of Raphanus sativus (radish) seeds, described in WO93/05153 (QKLCQRPSGTWSGVCGNNNACKNQCIRLEKARHGSCNYVFPAHKCICYFPC; UniProt P30230 30-80, looked up)
Fusarium culmorum; [3]
  MIC (minimum concentration giving more than 90% growth inhibition): 3.1 ppm
Fusarium culmorum
  MIC / concentration required alone to give strong growth inhibition: 12.5 ppm
Penicillium chrysogenum; [4]
  MIC (minimum concentration giving more than 90% growth inhibition): >200 ppm
Penicillium chrysogenum; 48 h, 24° C.
  MIC / concentration required alone to give strong growth inhibition: >200 ppm
Penicillium roquefortii; 3.1 ppm, medium B
  Fungal growth as compared to the control: 100%
Penicillium roquefortii; [4]
  MIC (minimum concentration giving more than 90% growth inhibition): 3 ppm
Penicillium roquefortii; 48 h, 24° C.
  MIC / concentration required alone to give strong growth inhibition: 25 ppm
Alternaria sp.; [3]
  MIC (minimum concentration giving more than 90% growth inhibition): 6.25 ppm
Alternaria sp.
  MIC / concentration required alone to give strong growth inhibition: 200 ppm
Cladosporium sp.; [3]
  MIC (minimum concentration giving more than 90% growth inhibition): 100 ppm
Cladosporium sp.
  MIC / concentration required alone to give strong growth inhibition: >200 ppm
Trichoderma harzianum; [3]
  MIC (minimum concentration giving more than 90% growth inhibition): 200 ppm
Trichoderma harzianum
  MIC / concentration required alone to give strong growth inhibition: >200 ppm
